Laboratory results as given in paper PMC7070682, “Alpha-Glucosidase- and Lipase-Inhibitory Phenalenones from a New Species of Pseudolophiostoma Originating from Thailand” (Molecules, 2020).
pIC50: −log10 of the molar value. In brackets after ≈: the same amount, converted by molar mass.

Columns and labels:
[1] = test system: HeLa (KB3.1) cells; experiment: Cytotoxicity assessment vs. KB3.1; format: cell-based; conditions: Homo sapiens, KB 3-1
Description: (§1) To verify the predicted toxicity of compounds 1–3, a cytotoxicity assessment (Table 4) was performed against mouse fibroblast (L929) and HeLa (KB3.1) cells, as previously reported.
(§2) The cytotoxic effects of the compounds were evaluated using a standard procedure.

[2] = target: T1, porcine lipase (Sus scrofa, UniProt P00591); experiment: Pancreatic lipase assay (p-nitrophenyl butyrate hydrolysis); format: biochemical; conditions: for pIC50: p-nitrophenyl butyrate substrate
T1 sequence (P00591 1-450): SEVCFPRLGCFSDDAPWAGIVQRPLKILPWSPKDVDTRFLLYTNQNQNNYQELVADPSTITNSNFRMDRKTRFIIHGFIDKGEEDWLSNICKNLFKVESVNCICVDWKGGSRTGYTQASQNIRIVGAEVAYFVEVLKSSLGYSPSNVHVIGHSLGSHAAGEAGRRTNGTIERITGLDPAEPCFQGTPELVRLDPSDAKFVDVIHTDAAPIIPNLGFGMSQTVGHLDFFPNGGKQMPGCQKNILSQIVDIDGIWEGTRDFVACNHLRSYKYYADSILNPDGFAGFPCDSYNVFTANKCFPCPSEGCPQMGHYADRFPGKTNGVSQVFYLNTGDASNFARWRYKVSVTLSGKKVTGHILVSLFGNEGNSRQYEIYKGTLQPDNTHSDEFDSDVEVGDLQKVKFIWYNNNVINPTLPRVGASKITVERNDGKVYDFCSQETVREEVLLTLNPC
Description: Pancreatic Lipase Assay. […] Thirty five microliters of each test compound in DMSO, 15 µL of pancreatic lipase enzyme (1 mg/mL buffer), and 45 µL Tris-HCl buffer (2.5 mmol Tris, pH = 7.4 and 2.5 mmol NaCl) were mixed in a 96 well microtiter plate and incubated at 25 °C for 15 min. The enzymatic hydrolysis was started upon the addition of 15 µL p-nitrophenyl butyrate (p-NPB). The number of p-nitrophenolate ions generated by the reaction was monitored using microplate reader, measured before incubation and 30 min after the addition of the substrate with corresponding change in absorbance at 405 nm.

[3] = target: α-glucosidase; experiment: α-Glucosidase assay (p-NPG substrate); format: biochemical
Description: α-Glucosidase assay. The substrates p-nitrophenyl α-glucopyranoside (p-NPG) and α-glucosidase were purchased from Sigma (St. Louis, USA). […] The standard assay protocol established by the Enzyme Inhibition Laboratory was adopted with minor modifications. First, 0.85 units/mL enzyme and 0.7mM of substrate were used for the initial screening of the fungal extracts, and 100mM sodium phosphate buffer containing 50 mM NaCl was prepared in deionized water (pH 6.8). The change in the absorbance was monitored initially before incubation and 30 min after the addition of p-NPG substrate. Percentage inhibition of enzyme by various test compounds was calculated using the formula: % inhibition= (ABS of Blank −ABS of Sample)/ABS of Blank× 100

[4] = test system: mouse fibroblast (L929) cells; experiment: Cytotoxicity assessment vs. L929; format: cell-based
Description: as §1, §2

[5] = design: method as in PMID 21923104; conditions: previously shown; cited from earlier work

pIC50 [2] | pIC50 [3] | SMILES | IC50 [1] [µg/mL] | IC50 [4] [µg/mL] | antimicrobial activities [5] | times more potent than orlistat (lipase inhibition) ([2]; relative to positive control orlistat) [times]
< 4.00 | < 4.00 | Cc1cc(O)cc2c1C1=C(C(=O)C2=O)C(C)(C)[C@H](C)O1 [Compound 3, trypethelone] | 4.2 (≈ 15.4 µM) | 2.7 (≈ 9.92 µM) | – | –
5.47 | 4.31 | Cc1cc(O)c2c3c(c(O)c4c(c13)O[C@@H](C)C4(C)C)C(=O)C(=O)O2 [Compound 1, scleroderolide] | 21 (≈ 64 µM) | 15 (≈ 45.7 µM) | – | –
– | – | C/C(=C\c1csc(C)n1)[C@@H]1C[C@@H]2O[C@]2(C)CCC[C@H](C)[C@H](O)[C@@H](C)C(=O)C(C)(C)[C@@H](O)CC(=O)O1 [Epothilone B, reference compound] | 4e-05 (≈ 7.88e-05 µM) | 0.0009 (≈ 0.00177 µM) | – | –

SMILES | pIC50 [2] | pIC50 [3] | IC50 [1] [µg/mL] | IC50 [4] [µg/mL] | antimicrobial activities [5] | times more potent than orlistat (lipase inhibition) ([2]; relative to positive control orlistat) [times]
Cc1cc(O)c2c3c(c(O)c4c(c13)O[C@@H](C)C4(C)C)C(=O)C2=O [Compound 2, sclerodione] | 6.00 | 3.92 | 18 (≈ 57.6 µM) | 27 (≈ 86.4 µM) | moderate | 9
